Source: patent publication US20240108006A1, “PESTICIDALLY ACTIVE HETEROAROMATIC COMPOUNDS” (SYNGENTA CROP PROTECTION AG, priority 2021, published 2024)

Tests used:
Assay type in all cases: in vivo
Plutella xylostella = experiment: Example B8: Plutella xylostella (diamond back moth), artificial diet 24-well, eggs; conditions: 192 h, application rate of 200 ppm, 8 days after infestation, read-out: effect in at least one of the two categories (mortality or growth inhibition)
Method in brief: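 Artificial diet in 24-well plates treated with aqueous dilutions of DMSO stock (10,000 ppm stock) and dried, then infested with Plutella eggs. Mortality and growth inhibition scored versus untreated samples 8 days after infestation.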

Spodoptera littoralis = experiment: Example B9: Spodoptera littoralis (Egyptian cotton leaf worm), cotton leaf discs, L1 larvae; conditions: foliar, 72 h, application rate of 200 ppm, 3 days after infestation, read-out: control in at least one of the three categories (mortality, anti-feedant effect, or growth inhibition)
Method: Example B9: Spodoptera littoralis (Egyptian Cotton Leaf Worm)
Cotton leaf discs were placed onto agar in 24-well microtiter plates and sprayed with aqueous test solutions prepared from 10,000 ppm DMSO stock solutions. After drying the leaf discs were infested with five L1 larvae. The samples were assessed for mortality, anti-feeding effect, and growth inhibition in comparison to untreated samples 3 days after infestation. Control of Spodoptera littoralis by a test sample is given when at least one of the categories mortality, anti-feedant effect, and growth inhibition is higher than the untreated sample.

Chilo suppressalis = experiment: Example B1: Chilo suppressalis (striped rice stemborer), artificial diet, L2 larvae; conditions: 144 h, application rate of 200 ppm, 6 days after infestation, read-out: control in at least one of the three categories (mortality, anti-feedant effect, or growth inhibition)
Method in brief: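 Artificial diet was treated with aqueous test solutions made from 10,000 ppm DMSO stocks, dried, then infested with L2 larvae (6-8 per well). Mortality, anti-feeding effect and growth inhibition were scored against untreated samples 6 days after infestation, and control was counted when any category exceeded untreated.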

Row | SMILES | percent effect (mortality or growth inhibition) at 200 ppm (Plutella xylostella) | percent control (mortality, anti-feedant effect or growth inhibition) at 200 ppm (Spodoptera littoralis) | percent control (mortality, anti-feedant effect or growth inhibition) at 200 ppm (Chilo suppressalis)
1 | C[C@H](NC(=O)Nc1cc(Oc2ccc(C(F)(F)F)cn2)c(Cl)cc1Cl)c1ncnn1-c1ncccn1 [Example P209, 1-[2,4-dichloro-5-[[5-(trifluoromethyl)-2-pyridyl]oxy]phenyl]-3-[(1S)-1-(2-pyrimidin-2-yl-1,2,4-triazol-3-yl)ethyl]urea] | ≥ 80% | ≥ 80% | 
2 | C[C@H](NC(=O)Nc1cc(C(F)(F)F)ccc1Br)c1ncnn1-c1ncccn1 [Example P70, 1-[2-bromo-5-(trifluoromethyl)phenyl]-3-[(1S)-1-(2-pyrimidin-2-yl-1,2,4-triazol-3-yl)ethyl]urea] | ≥ 80% | ≥ 80% | ≥ 80%
3 | COC(=O)c1cc2c(cc1NC(=O)N[C@@H](C)c1ncnn1-c1ncccn1)OC(F)(F)O2 [Example P369, methyl 2,2-difluoro-6-[[(1S)-1-(2-pyrimidin-2-yl-1,2,4-triazol-3-yl)ethyl]carbamoylamino]-1,3-benzodioxole-5-carboxylate] | ≥ 80% | ≥ 80% | 
4 | Cc1cc(Cl)c(Cl)cc1NC(=O)N[C@@H](C)c1ncnn1-c1ncccn1 [Example P191, 1-(4,5-dichloro-2-methyl-phenyl)-3-[(1S)-1-(2-pyrimidin-2-yl-1,2,4-triazol-3-yl)ethyl]urea] | ≥ 80% | ≥ 80% | 
5 | C[C@H](NC(=S)Nc1ccc(Cl)c(C(F)(F)F)c1)c1ncnn1-c1ncccn1 [Example P15, 1-[4-chloro-3-(trifluoromethyl)phenyl]-3-[(1S)-1-(2-pyrimidin-2-yl-1,2,4-triazol-3-yl)ethyl]thiourea] |  | ≥ 80% | ≥ 80%
6 | C[C@H](NC(=O)Nc1cc(Cl)c(Oc2ncc(C(F)(F)F)cc2Cl)c(Cl)c1)c1ncnn1-c1ncccn1 [Example P26, 1-[3,5-dichloro-4-[[3-chloro-5-(trifluoromethyl)-2-pyridyl]oxy]phenyl]-3-[(1S)-1-(2-pyrimidin-2-yl-1,2,4-triazol-3-yl)ethyl]urea] | ≥ 80% | ≥ 80% | 
7 | C[C@H](NC(=O)Nc1ccc(Cl)c(C(F)(F)F)c1)c1ncnn1-c1ncccn1 [Example P131, 1-[4-chloro-3-(trifluoromethyl)phenyl]-3-[(1S)-1-(2-pyrimidin-2-yl-1,2,4-triazol-3-yl)ethyl]urea] |  | ≥ 80% | ≥ 80%
8 | C#CCOc1cc(NC(=O)N[C@@H](C)c2ncnn2-c2ncccn2)c(F)cc1Br [Example P203, 1-(4-bromo-2-fluoro-5-prop-2-ynoxy-phenyl)-3-[(1S)-1-(2-pyrimidin-2-yl-1,2,4-triazol-3-yl)ethyl]urea] | ≥ 80% | ≥ 80% | 
9 | C[C@H](NC(=O)Nc1ccc(Cl)c(C(F)(F)F)c1)c1nccnc1-c1ncccn1 [Example P11, 1-[4-chloro-3-(trifluoromethyl)phenyl]-3-[(1S)-1-(3-pyrimidin-2-ylpyrazin-2-yl)ethyl]urea] | ≥ 80% | ≥ 80% | 
10 | C[C@H](NC(=O)Nc1ccc(Br)cc1OC(F)F)c1ncnn1-c1ccc(C#N)cn1 [Example P254, 1-[4-bromo-2-(difluoromethoxy)phenyl]-3-[(1S)-1-[2-(5-cyano-2-pyridyl)-1,2,4-triazol-3-yl]ethyl]urea] | ≥ 80% | ≥ 80% | 
